Measured values as given in patent US7207289B2, “Method of feeding the cattle with feed additives that increases beef production and reduces liver abscess” (Intervet International B.V., priority 2004, dated 2007).

Experiments:
cattle = details: cited from earlier work
steers = assay: Study V-0238-0017: effects of Rumensin plus Tylan and zilpaterol on liver abscess rates in feedlot steers; format: in vivo, cattle
Source text: In study number V-0238-0017 a total of 3,945 steers were used to test the effects of Rumensin® plus Tylan® and zilpaterol on feedlot performance, liver abscess rates, and carcass traits. The inventors discovered that Tylan® and Rumensin® could be removed from the diet for the last 30 days to feed zilpaterol without negatively affecting liver abscess rates. In fact it was discovered that zilpaterol decreased the incidence of liver abscesses.
Study Number V-0238-0017, Effects of Zilpaterol on Liver Abscesses

steers and heifers = assay: Zilpaterol efficacy studies V-0238-0019, V-0238-0020, V-0238-0021 (pooled analysis): liver abscesses and feed intake; format: in vivo, cattle
Source text: All of these cattle had been fed Tylan® up to the last 20 to 40 days on feed at which time Tylan® was removed and cattle were either fed a control diet without Tylan®, Rumensin® or zilpaterol or cattle were fed a treatment diet containing just zilpaterol. While the mechanism by which zilpaterol decreases liver abscess is not fully clear at this time, it seems that zilpaterol functions to decrease liver abscesses by decreasing feed intake. Because the liver abscesses discovered at slaughter are formed during the last ˜60 days or less on feed and this is the same time zilpaterol is fed, a decrease in feed intake would result in a decrease in acid production and possibly a decrease in rumen wall lesions and rumenitis.
Summary of Zilpaterol Efficacy Studies (Pooled Analysis), Study Numbers, V-0238-0019, V-0238-0020, and V-0238-0021 on Liver Abscesses and Feed Intake

Compound	feed intake and dressing percentage (cattle; Laudert and Vogel (1994))	gain and feed to gain ratio (cattle; Laudert and Vogel (1994))	average daily gain (cattle; Potter et al. (1985))	feed intake (cattle; Potter et al. (1985))	liver abscesses being reduced (cattle; cattle treated with Tylan, typical)	Live Abscess, % (steers; 166-day study, 3,945 steers, 10 pens per treatment, zilpaterol fed for the last 30 days on feed)	incidence of liver abscesses (effect in words) (steers; study V-0238-0017, steers)	Average Daily Dry Matter Intake, lbs. (steers and heifers; pooled analysis of three studies, zilpaterol for the last 20 or 40 days)	% of Livers Condemned for Abscesses (steers and heifers; pooled, 957 animals, Tylan removed for the last 20 to 40 days, diet containing just zilpaterol)	liver abscesses (effect in words) (steers and heifers; steers and heifers supplemented for 20 or 40 days)
CC[C@H]1OC(=O)C[C@@H](O)[C@H](C)[C@@H](O[C@@H]2O[C@H](C)[C@@H](O[C@H]3C[C@@](C)(O)[C@@H](O)[C@H](C)O3)[C@H](N(C)C)[C@H]2O)[C@@H](CC=O)C[C@@H](C)C(=O)/C=C/C(C)=C/[C@@H]1CO[C@@H]1O[C@H](C)[C@@H](O)[C@@H](OC)[C@H]1OC [Tylan, Tylosin]	only minor effects	improved	improved	no effect	63 to 71%					
CC(C)NC1CCn2c(=O)[nH]c3cccc(c32)C1O (stereo not shown) [Zilpaterol]						13.29%	decreased	18.69 lbs.	19.1%	significantly decreased
